From US20230416196A1, “DIMER OF BIGUANIDINES AND THEIR THERAPEUTIC USES” (INSTITUT CURIE, priority 2020, published 2023)

Assays:
[1] = tested on: HMLER CD44^high/CD24^low; experiment: Cell viability assay (CellTiter-Blue) on breast cancer stem cell model HMLER CD44high/CD24low; format: cell-based, human
Procedure: Cell viability assay (IC50). Cell viability assay was carried out by plating 1000 cells/well in 96-well plates. Cells were treated for 72 h in a range between to 25 nM and […] using serial dilutions. The inventors followed the manufacturer's protocol. In brief, CellTiter-Blue® reagent (G8081, Promega) was added after 72 h treatment and cells were incubated for 3 h before recording fluorescence intensities (λex. 560/20 nm; λem. 590/10 nm) using a Perkin Elmer Wallac 1420 Victor2 Microplate Reader.
Cell culture. MCF7 (ATCC) cells, DU-145 (ATCC) cells and FC1245 cells were cultured in Dulbecco's Modified Eagle Medium GlutaMAX (DMEM, ThermoFisher Scientific, 61965059) supplemented with 10% Fetal Bovine Serum (FBS, Gibco, 10270-106) and Penicillin-Streptomycin mixture (BioWhittaker/Lonza, DE17-602E) unless stated otherwise. Primary lung circulating tumor cells (Celprogen, 36107-34CTC, Lot 219411) were grown using stem cell complete media (Celprogen, M36102-29PS) until the third passage. Circulating cancer cells were grown in stem cell ECM T75-flasks (Celprogen, E36102-29-T75) and ECM 6-well plates (Celprogen, E36102-29-6Well). HMLER cells ([…]) naturally repressing E-cadherin, obtained from human mammary epithelial cells infected with a retrovirus carrying hTERT, SV40 and the oncogenic allele H-rasV12, and HMLER CD44 and TFRC ko clones were cultured in DMEM/F12 (Thermo Fisher Scientific, 31331093) supplemented with 10% FBS (Thermo Fisher Scientific, 10270106), 10 μg/mL insulin (Sigma-Aldrich, 10516), 0.5 μg/mL hydrocortisone (Sigma-Aldrich, H0888) and 0.5 μg/mL puromycin (Life Technologies, A11138-02), unless stated otherwise. HMLER CD44^high cells were also supplemented with 10 ng/mL EGF (Miltenyi Biotech, 130-097-750).

[2] = tested on: dendritic cells; experiment: Activation of dendritic cells (CD40, CD83, CD80, CD86 flow cytometry); format: cell-based, human; conditions: LCC-12 10 μM, 24 h, LPS; FIG. 6E
Procedure: Dendritic cells. Peripheral blood samples were collected from healthy donors (Etablissement Français du Sang). Pan monocytes were isolated by negative magnetic sorting using microbeads according to the manufacturer's instructions (Miltenyi Biotec, 130-096-537), and cultured in RPMI 1640 supplemented with glutamine, 10% fetal bovine serum and treated with granulocyte-macrophage colony-stimulating factor (GM-CSF, 100 ng/mL) and IL-4 (10 ng/mL) to induce differentiation into dendritic cells (DC). At day 5 of differentiation, DC were treated with lipopolysaccharides (LPS, 100 ng/mL, 24 h) to generate activated DC and were co-treated with LCC-12 (in-house, 10 μM, 24 h). The activation status of the dendritic cells was assessed by measuring CD40, CD83, CD80 and CD86 surface markers by flow cytometry.

[3] = tested on: EMT induction (E-cadherin, Fibronectin, Slug); experiment: Western blot of epithelial and mesenchymal markers upon EMT induction; format: cell-based; conditions: TGF-β or OSM; FIG. 8D
Procedure: Cell culture. MCF7 (ATCC) cells, DU-145 (ATCC) cells and FC1245 cells were cultured in Dulbecco's Modified Eagle Medium GlutaMAX (DMEM, ThermoFisher Scientific, 61965059) supplemented with 10% Fetal Bovine Serum (FBS, Gibco, 10270-106) and Penicillin-Streptomycin mixture (BioWhittaker/Lonza, DE17-602E) unless stated otherwise. Primary lung circulating tumor cells (Celprogen, 36107-34CTC, Lot 219411) were grown using stem cell complete media (Celprogen, M36102-29PS) until the third passage. Circulating cancer cells were grown in stem cell ECM T75-flasks (Celprogen, E36102-29-T75) and ECM 6-well plates (Celprogen, E36102-29-6Well). […]
Western Blotting. […] Proteins were solubilized in 2× Laemmli buffer containing benzonase (VWR, 70664-3, 1:100), extracts were incubated at 37° C. for 1 h, and quantified using a NanoDrop 2000 spectrophotometer (ThermoFisher Scientific). […] Antigens were detected using the SuperSignal West Pico PLUS chemiluminescent detection kits (ThermoFisher Scientific, 34580 and 34096). Signals were recorded using a Fusion Solo S Imaging System (Vilber) and quantified as indicated using ImageJ. […]

Compound: N=C(N)NC(=N)NCCCCCCCCCCCCNC(=N)NC(=N)N [LCC-12, lipophilic copper clamp C12]
- improved IC50 compared with metformin ([1]; HMLER CD44high/CD24low): more than 2800 fold
- IC50 ([1]; Homo sapiens, cell viability, 72 h treatment, read-out: IC50 against HMLER CD44^high/CD24^low): 8 µM
- activation of dendritic cells [2]: decreases the activation
- EMT induction (E-cadherin, Fibronectin, Slug levels) [3]: antagonized EMT induction
